Measurements: patent publication US20090143438A1, “Novel Pyridine Derivative Having Anti-Helicobacter Pylori Activity” (Arigen Pharmaceuticals, Inc., priority 2006, published 2009)
Converted amounts (≈) assume the structure as drawn. Read-outs that look alike come from different tables or passages of the source.

Experiments:
[1] = tested on: H. pylori, ATCC 43504; experiment: Antibacterial power test, Columbia agar, MIC; type: cell-based, Helicobacter pylori; conditions: 37° C., pH 7.0, 3 days, read on 4th day; for MIC: Helicobacter pylori, ATCC43504, 72 h, read-out: MIC, in vitro anti-Helicobacter pylori activity
Description: An in vitro test was performed in a Columbia agar medium using a standard strain of H. pylori, ATCC 43504. […] Each of the test objects was dissolved in a 1% DMSO solution. Furthermore, as antibiotic control drugs, ampicillin from the penicillin family (control drug 1), gentamycin from the aminoglycoside family (control drug 2), tetracycline from the tetracycline family (control drug 3), and ofloxacin from the new quinolone family (control drug 4) were used.

[2] = tested on: H. pylori NCTC 11637; experiment: In vitro MIC test in Columbia agar, standard strain; type: cell-based, Helicobacter pylori; conditions: for MIC: Helicobacter pylori, NCTC11637, 72 h, standard strain NCTC 11637, 37° C., pH 7.0, 3 days
Description: (§1) An in vitro test was performed in a Columbia agar medium using standard strains of H. pylori, NCTC 11637 and 11916, clinical isolates PT#1045482, PT#1045483 and PT#1045484, and ofloxacin- and roxithromycin-resistant, clinical isolates TY2, 4 and 5. Each of the test objects was dissolved in a 1% DMSO solution. Furthermore, as antibiotic control drugs, roxithromycin from the macrolide family and ofloxacin from the new quinolone family were used. The strains were cultured at 37° C. and pH 7.0 for 3 days, and on the 4th day, the minimum inhibitory concentrations (MIC, μg/ml) were determined.

[3] = tested on: H. pylori NCTC 11916; experiment: as above; type: cell-based, Helicobacter pylori; conditions: for MIC: Helicobacter pylori, NCTC11916, 72 h, standard strain NCTC 11916, 37° C., pH 7.0, 3 days
Description: as §1

[4] = tested on: H. pylori clinical isolate PT#1045482; experiment: In vitro MIC test in Columbia agar, clinical isolate; type: cell-based; conditions: Helicobacter pylori, 72 h, 37° C., pH 7.0, 3 days
Description: as §1

[5] = tested on: H. pylori clinical isolate PT#1045483; experiment: as above; type: cell-based; conditions: Helicobacter pylori, 72 h, 37° C., pH 7.0, 3 days
Description: as §1

[6] = tested on: H. pylori clinical isolate PT#1045484; experiment: as above; type: cell-based; conditions: Helicobacter pylori, 72 h, 37° C., pH 7.0, 3 days
Description: as §1

[7] = tested on: H. pylori ofloxacin- and roxithromycin-resistant clinical isolate TY2; experiment: In vitro MIC test in Columbia agar, resistant clinical isolate; type: cell-based; conditions: Helicobacter pylori, 72 h; resistant strain TY2; 37° C., pH 7.0, 3 days
Description: as §1

[8] = tested on: H. pylori ofloxacin- and roxithromycin-resistant clinical isolate TY4; experiment: as above; type: cell-based; conditions: Helicobacter pylori, 72 h; resistant strain TY4; 37° C., pH 7.0, 3 days
Description: as §1

[9] = tested on: H. pylori ofloxacin- and roxithromycin-resistant clinical isolate TY5; experiment: as above; type: cell-based; conditions: Helicobacter pylori, 72 h; resistant strain TY5; 37° C., pH 7.0, 3 days
Description: as §1

[10] = tested on: Enterococcus faecalis (VRE, ATCC 51575); experiment: In vitro antibacterial test against various bacteria, MIC; type: cell-based; conditions: 37° C., 20 to 48 hours
Description: (§2) An in vitro antibacterial test for the compounds of Examples 1 to 6 against various bacteria was performed. As gram-negative bacteria, Escherichia coli (ATCC 10536, ATCC 25922), Klebsiella pneumonia (ATCC 10031), Proteus vulgaris (ATCC 13315), Pseudomonas aeruginosa (ATCC 9027), Salmonella typhimurium (ATCC 13311), and as gram-positive bacteria, Staphylococcus aureus, MRSA (ATCC 33591), Staphylococcus epidermidis (ATCC 12228), Streptococcus pneumonia (ATCC 6301), Mycobacterium ranae (ATCC 110) and Enterococcus faecalis (VRE, ATCC 51575) were used. The various bacteria were cultured at 37° C. for 20 to 48 hours by conventional methods, and the minimum inhibitory concentrations (MIC, μg/ml) were determined. Each of the test objects were dissolved in a 1% DMSO solution. Furthermore, as an antibiotic control drug, gentamycin (GEM) from the aminoglycoside family was used.

[11] = tested on: Escherichia coli (ATCC 10536); experiment: as above; type: cell-based; conditions: 20 to 48 hours
Description: as §2

[12] = tested on: Escherichia coli (ATCC 25922); experiment: as above; type: cell-based; conditions: 20 to 48 hours
Description: as §2

[13] = tested on: Klebsiella pneumonia (ATCC 10031); experiment: as above; type: cell-based; conditions: 20 to 48 hours
Description: as §2

[14] = tested on: Mycobacterium ranae (ATCC 110); experiment: as above; type: cell-based; conditions: 20 to 48 hours
Description: as §2

[15] = tested on: Proteus vulgaris (ATCC 13315); experiment: as above; type: cell-based; conditions: 20 to 48 hours
Description: as §2

[16] = tested on: Pseudomonas aeruginosa (ATCC 9027); experiment: as above; type: cell-based; conditions: 20 to 48 hours
Description: as §2

[17] = tested on: Salmonella typhimurium (ATCC 13311); experiment: as above; type: cell-based; conditions: 37° C., 20 to 48 hours
Description: as §2

[18] = tested on: Staphylococcus aureus, MRSA (ATCC 33591); experiment: as above; type: cell-based; conditions: 37° C., 20 to 48 hours
Description: as §2

[19] = tested on: Staphylococcus epidermidis (ATCC 12228); experiment: as above; type: cell-based; conditions: 20 to 48 hours
Description: as §2

[20] = tested on: Streptococcus pneumonia (ATCC 6301); experiment: as above; type: cell-based; conditions: Streptococcus pneumoniae, ATCC6301, 37° C., 20 to 48 hours
Description: as §2

[21] = tested on: various gram-negative bacteria and gram-positive bacteria; experiment: In vitro antibacterial test against various bacteria, overall statement; type: cell-based; conditions: bacteria of Table 4
Description: as §2

[22] = ATCC10536, 37° C., read-out: MIC
[23] = ATCC25922, 37° C., read-out: MIC
[24] = Klebsiella pneumoniae, ATCC10031, 37° C., read-out: MIC
[25] = ATCC13315, 37° C., read-out: MIC
[26] = ATCC9027, 37° C., read-out: MIC
[27] = Salmonella enterica, read-out: MIC
[28] = ATCC12228, 37° C., read-out: MIC

Row | Compound | MIC [1] | MIC [2] | MIC [3] | MIC [4] | MIC [5] | MIC [6] | MIC [7] | MIC [8] | MIC [9] | MIC [10] | MIC [11, 22] | MIC [12, 23] | MIC [13, 24] | MIC ([14]; ATCC110, 37° C., read-out: MIC) | MIC [15, 25] | MIC [16, 26] | MIC [17, 27] | MIC ([18]; read-out: MIC) | MIC [19, 28] | MIC [20] | further results
1 | Cc1c(OCCCCCCCCO)ccnc1CSc1nc2ccccc2[nH]1 [Example 4, 2-[{4-(8-hydroxyoctyloxy)-3-methylpyridin-2-yl}methylthio]-1H-benzimidazole] | 0.03 µg/mL (≈ 0.0751 µM) | 0.03 µg/mL (≈ 0.0751 µM) | 0.03 µg/mL (≈ 0.0751 µM) | 0.03 µg/mL (≈ 0.0751 µM) | 0.03 µg/mL (≈ 0.0751 µM) | 0.03 µg/mL (≈ 0.0751 µM) | 0.03 µg/mL (≈ 0.0751 µM) | 0.1 µg/mL (≈ 0.25 µM) | 0.03 µg/mL (≈ 0.0751 µM) | > 100 µg/mL | > 100 µg/mL | > 100 µg/mL | > 100 µg/mL | > 100 µg/mL | > 100 µg/mL | > 100 µg/mL | > 100 µg/mL | > 100 µg/mL | > 100 µg/mL | > 100 µg/mL | activity compared to the compounds (e) and (f) ([2]; standard strain NCTC11637): 26.6 fold; activity compared to the compounds (e) and (f) ([3]; standard strain NCTC11916): 52 fold
2 | Cc1c(OCCCCCCCCCO)ccnc1CSc1nc2ccccc2[nH]1 [Example 5, 2-[{4-(9-hydroxynonyloxy)-3-methylpyridin-2-yl}methylthio]-1H-benzimidazole] | 0.1 µg/mL (≈ 0.242 µM) | 0.1 µg/mL (≈ 0.242 µM) | 0.1 µg/mL (≈ 0.242 µM) | 0.2 µg/mL (≈ 0.484 µM) | 0.1 µg/mL (≈ 0.242 µM) | 0.1 µg/mL (≈ 0.242 µM) | 0.1 µg/mL (≈ 0.242 µM) | 0.3 µg/mL (≈ 0.725 µM) | 0.2 µg/mL (≈ 0.484 µM) | > 100 µg/mL | > 100 µg/mL | > 100 µg/mL | > 100 µg/mL | > 100 µg/mL | > 100 µg/mL | > 100 µg/mL | > 100 µg/mL | > 100 µg/mL | > 100 µg/mL | > 100 µg/mL | 
3 | Cc1c(OCCCCCCCCCCO)ccnc1CSc1nc2ccccc2[nH]1 [Example 6, 2-[{4-(10-hydroxydecyloxy)-3-methylpyridin-2-yl}methylthio]-1H-benzimidazole] | 0.3 µg/mL (≈ 0.702 µM) | 0.3 µg/mL (≈ 0.702 µM) | 0.2 µg/mL (≈ 0.468 µM) | 0.3 µg/mL (≈ 0.702 µM) | 0.3 µg/mL (≈ 0.702 µM) | 0.3 µg/mL (≈ 0.702 µM) | 0.3 µg/mL (≈ 0.702 µM) | 0.3 µg/mL (≈ 0.702 µM) | 0.3 µg/mL (≈ 0.702 µM) | > 100 µg/mL | > 100 µg/mL | > 100 µg/mL | > 100 µg/mL | > 100 µg/mL | > 100 µg/mL | > 100 µg/mL | > 100 µg/mL | > 100 µg/mL | > 100 µg/mL | > 100 µg/mL | 
4 | gentamycin [Control Drug 2 (Gentamycin), reference compound] |  |  |  |  |  |  |  |  |  |  |  |  |  |  |  |  |  |  |  |  | MIC, in vitro anti-Helicobacter pylori activity [1]: 0.3 µg/mL; MIC ([11]; 37° C.): 0.3 µg/mL; MIC ([12]; 37° C.): 1.0 µg/mL; MIC ([13]; 37° C.): 1.0 µg/mL; MIC ([14]; 37° C.): 0.3 µg/mL; MIC ([15]; 37° C.): 0.3 µg/mL; MIC ([16]; 37° C.): 0.3 µg/mL; MIC [17]: 1.0 µg/mL; MIC [18]: 1.0 µg/mL; MIC ([19]; 37° C.): 0.1 µg/mL; antibacterial action against various gram-negative and gram-positive bacteria (in words) [21]: strong antibacterial action
